In patent US20060019972A1, “Methods of treating cancer by inhibiting histone gene expression” (California Institute of Technology, priority 2004, published 2006):
“Also recorded” adds a separate entry of the source. Read-outs that look alike come from different tables or passages of the source.

What was measured:
[1] = test system: SW620 colon carcinoma cells; assay: Growth arrest / cell counts of SW620 cells; format: cell-based, human; details: for Growth arrest: SW620 cells, based on cell counts, 0.5 μM
Description: (§1) Chemotherapeutic molecules, such as DNA alkylators, topoisomerase inhibitors or histone deacetylase inhibitors, alter the morphology and growth characteristics of cancer cells in culture. […] Cells were transfected with 25-100 nM siRNA using the Silencer™ siRNA Transfection Kit (Ambion, Inc.). Cell growth and morphology change were evaluated 72 or 96 hr after transfection by counting cells in a hemocytometer, and by visually inspecting cells in a phase contrast microscope.

[2] = test system: SW620 colon carcinoma cells; assay: Cell morphology change of SW620 cells (phase contrast microscopy); format: cell-based, human; details: for Cell morphology change: SW620 cells, 0.5 μM
Description: as §1

[3] = test system: histone H4c mRNA in SW620 cells; assay: Real-time quantitative RT-PCR of H4c mRNA; format: cell-based, human
Description: (§2) Quantitative real-time RT-PCR was performed using QuantiTect™ SYBR® Green RT-PCR (Qiagen) as described. […] Temperature cycling and detection of the SYBR® Green emission was performed with a Cepheid SmartCycler® system. Statistical analysis was performed on three independent quantitative RT-PCR experiments for each RNA sample.

v-Myb = assay: qRT-PCR of v-Myb expression; format: cell-based
SW620 cells [4] = assay: Nuclear structure, Hoechst staining and fluorescence microscopy; details: polyamide 0.5 μM for 72 hours or siRNA transfection
[5] = test system: human histone H4c gene (radiolabeled PCR product); format: biochemical
[6] = test system: SW620 colon carcinoma cells
SW620 cells [7] = format: cell-based, human; details: SW620 cells pre-treated, grown without polyamide up to two weeks
Description: Soft agar assays were performed in 6-well culture dishes using SeaPlaque low-melting temperature agarose (Cambrex Bio Science Rocklarid, Inc.). The cell growth medium was supplemented with 20% fetal bovine serum. Cells were treated for 5 days with or without polyamide, harvested by trypsin treatment, and counted using a hemocytometer. […] Cells were gently mixed by pipetting and quickly transferred to the culture dish containing a thin layer (0.5 ml) of solidified 0.5% agarose in medium. Cultures were incubated for 1-2 weeks prior to visualization by microscopy.
Equal numbers of untreated and polyamide-treated cells were inoculated into soft agar (without polyamide), and grown for up to two weeks.

SW620 cells [8] = assay: Affymetrix U133A microarray analysis of genomic transcription; format: cell-based, human; details: 0.5 μM, 72 hr
Description: Total RNA from SW620 cells from four pooled culture wells from triplicate experiments was isolated using a Qiagen RNeasy™ Midi kit according to the manufacturer's instructions. […]. Microarray experiments were performed at the DNA Array Core Facility of The Scripps Research Institute using Affymetrix Genechip® Human Genome U133A chips. Data were analyzed using Affymetrix MicroArray® Suite (MAS 5.0) software. RMA values for probe sets were analyzed using Significance Analysis of Microarrays (SAM) 1.21 software (Stanford University).
The effects of polyamide treatment on genomic transcription were monitored by DNA microarray analysis using Affymetrix high-density U133A arrays, which contain oligonucleotides representing approximately 18,000 human genes. […]. Total RNA was isolated, converted into fluorescent cRNA and hybridized to the oligonucleotide microarrays. […]

K562 [9] = assay: G2/M cell cycle arrest by FACS analysis; format: cell-based, human
K562 [10] = assay: Growth inhibition; format: cell-based, human
H4c mRNA in K562 = format: cell-based, human
Description: as §2

[11] = SW620, 25-100 nM siRNA, 72 or 96 hr

5′-GGGCAUUACAAAACCGGCUtt-3′ [HIST1H4C-1]
cell number / growth after siRNA transfection [1, 11]: decreased | reduction in cell number relative to untreated cells ([1]; SW620, after 3 days): 73 (+1-5) % | Relative cell number ([1]; SW620, siRNA transfection, untreated = 100%): 37% | cell morphology change after siRNA transfection [2, 11]: caused a morphological change | down regulation of H4c mRNA compared to scrambled sequence siRNA ([3]; SW620, quantitative RT-PCR): ~8.6 fold | down regulation of H4c transcription sufficient to cause growth arrest ([3]; SW620 cells): 2 fold | effect on v-Myb transcription / expression (v-Myb): down regulated v-Myb transcription | effect on size of the cell nucleus (SW620 cells [4]): caused a similar enlargement of the cell nucleus

Cc1cc(C)n2c1C=C1C=CC(CCCCC(=O)N[C@H](CCNC(=O)c3nc(NC(=O)CCNC(=O)c4nc(NC(=O)c5nccn5C)cn4C)cn3C)C(=O)Nc3cc(C(=O)Nc4cc(C(=O)Nc5cc(C(=O)Nc6cc(C(=O)NCCC(=O)NCCCN(C)C)n(C)c6)n(C)c5)n(C)c4)n(C)c3)=[N+]1[B-]2(F)F [1R-bobipy]
entry into the nucleus (SW620 cell line): entered the nucleus

Cc1cc(C)n2c1C=C1C=CC(CCCCC(=O)N[C@@H](CCNC(=O)c3nc(NC(=O)CCNC(=O)c4nc(NC(=O)c5nccn5C)cn4C)cn3C)C(=O)Nc3cc(C(=O)Nc4cc(C(=O)Nc5cc(C(=O)Nc6cc(C(=O)NCCC(=O)NCCCN(C)C)n(C)c6)n(C)c5)n(C)c4)n(C)c3)=[N+]1[B-]2(F)F [1S-bodipy]
entry into the nucleus (SW620 cell line): entered the nucleus

CN(C)CCCNC(=O)CCNC(=O)c1cc(NC(=O)c2nc(NC(=O)CCNC(=O)c3cc(NC(=O)c4cc(NC(=O)[C@@H](CCNC(=O)c5cc(NC(=O)c6nc(NC(=O)CCNC(=O)c7cc(NC(=O)c8nccn8C)cn7C)cn6C)cn5C)NC(=O)CCCc5ccc(N(CCCl)CCCl)cc5)cn4C)cn3C)cn2C)cn1C [2-Chl, ImPy-βImPy-(R-2,4-Daba^Chl)-PyPyβImPy-βDp]
Growth arrest [1]: no | Cell morphology change [2]: no

CN(C)CCCNC(=O)CCNC(=O)c1cc(NC(=O)c2cc(NC(=O)c3cc(NC(=O)c4cc(NC(=O)[C@@H](CCNC(=O)c5cc(NC(=O)c6cc(NC(=O)c7cc(NC(=O)c8nccn8C)cn7C)cn6C)cn5C)NC(=O)CCCc5ccc(N(CCCl)CCCl)cc5)cn4C)cn3C)cn2C)cn1C [4-Chl]
Growth arrest [1]: cytotoxic | alkylation of the H4c PCR product on either strand [5]: fail to significantly alkylate | cytotoxicity [6]: highly cytotoxic

CN(C)CCCNC(=O)CCNC(=O)c1cc(NC(=O)c2cc(NC(=O)c3cc(NC(=O)c4cc(NC(=O)[C@@H](CCNC(=O)c5cc(NC(=O)c6nc(NC(=O)c7cc(NC(=O)c8nccn8C)cn7C)cn6C)cn5C)NC(=O)CCCc5ccc(N(CCCl)CCCl)cc5)cn4C)cn3C)cn2C)cn1C [5-Chl]
Growth arrest [1]: cytotoxic | alkylation of the H4c PCR product on either strand [5]: fail to significantly alkylate | cytotoxicity [6]: highly cytotoxic

CN(C)CCCNC(=O)CCNC(=O)c1cc(NC(=O)c2cc(NC(=O)c3cc(NC(=O)c4cc(NC(=O)[C@@H](CCNC(=O)c5nc(NC(=O)c6nc(NC(=O)c7cc(NC(=O)c8nccn8C)cn7C)cn6C)cn5C)NC(=O)CCCc5ccc(N(CCCl)CCCl)cc5)cn4C)cn3C)cn2C)cn1C [6-Chl]
Growth arrest [1]: abolished the morphological change and growth arrest; also recorded: slight | Cell morphology change [2]: abolished the morphological change and growth arrest and no

O=C(O)CCCc1ccc(N(CCCl)CCCl)cc1 [Chl, chlorambucil, reference compound]
growth in soft agar (SW620 cells [7]): formed colonies | Growth arrest [1]: without effect | Cell morphology change [2]: without effect | genes whose transcription was affected (SW620 cells [8]): a large number of genes | cytotoxicity ([6]; concentrations higher than 0.5 μM): cytotoxic at higher concentrations

CN(C)CCCNC(=O)CCNC(=O)c1cc(NC(=O)c2cc(NC(=O)c3cc(NC(=O)c4nc(NC(=O)C(CCNC(=O)c5cc(NC(=O)c6cc(NC(=O)c7nc(NC(=O)c8nccn8C)cn7C)cn6C)cn5C)NC(=O)CCCc5ccc(N(CCCl)CCCl)cc5)cn4C)cn3C)cn2C)cn1C (stereo not drawn) [ImImPyPy-(R-2,4-Daba^Chl)-ImPyPyPy-β-Dp]
cell cycle arrest (K562 [9]): causes growth and cell cycle arrest | Growth arrest (K562 [10]): causes growth and cell cycle arrest | effect on H4c gene transcription (H4c mRNA in K562): down regulates H4c gene transcription | alkylation of the H4c gene in vitro ([5]; sites of the form 5′-WGGWCN-3′): alkylate multiple sites in the H4c gene
